Source: the SangsterLogP compilation

Assays:
[1] = method code SF-AS, from DOI: 10.1016/j.ejmech.2007.07.011, PMID: 17869385; details: pH 7.4
[2] = method code SF, from DOI: 10.1016/s0223-5234(98)80007-x
[3] = method code SF-AS, from DOI: 10.1211/0022357001773940, PMID: 10757413; details: pH 7.4
[4] = not given; remark: listed apart in the source
[5] = method code SF-GLC, from DOI: 10.1016/s0380-1330(82)71969-0
[6] = method code SF-AS, from PMID: 582409; details: pH 7.4
[7] = not given; remark: listed apart in the source
[8] = not given; remark: listed apart in the source
[9] = not given; remark: listed apart in the source
[10] = not given; remark: listed apart in the source
[11] = method code SF, from DOI: 10.1016/0223-5234(94)90060-4; details: pH 7.4
[12] = method code SF-HPLC, from DOI: 10.1021/jm00109a018, PMID: 2033591; details: pH 7.0
[13] = method code SF, from DOI: 10.1021/jf60167a006
[14] = method code SF-AS, from PMID: 7646571; details: pH 7.0
[15] = not given; remark: listed apart in the source
[16] = method code SF-AS, from DOI: 10.1021/jf950378u
[17] = method code SF-HPLC, from DOI: 10.1002/jps.22717, PMID: 21837649; details: pH 7.4
[18] = method code SF, from PMID: 7412765; details: pH 7.0
[19] = not given; remark: listed apart in the source
[20] = method code SF-RC, from DOI: 10.1111/j.1399-3054.1990.tb08712.x
[21] = not given; remark: listed apart in the source
[22] = not given; remark: listed apart in the source
[23] = method code SF-AS, from DOI: 10.1111/j.2042-7158.1988.tb06996.x, PMID: 2907534; details: pH 7.0
[24] = method code SF-AS, from DOI: 10.5012/bkcs.2007.28.7.1183
[25] = not given; remark: listed apart in the source
[26] = method code SF-HPLC, from DOI: 10.1002/ps.2780170106; details: pH 2.0
[27] = not given; remark: listed apart in the source
[28] = method code SF-RC, from DOI: 10.1016/j.nucmedbio.2008.01.001, PMID: 18355684; details: pH 7.4
[29] = not given; remark: listed apart in the source
[30] = not given; remark: listed apart in the source
[31] = method code SF, from DOI: 10.1002/ps.2780290303; details: pH 5.0
[32] = method code SF, from DOI: 10.1016/0304-4165(80)90351-7, PMID: 6243999; details: pH 7.4
[33] = not given; remark: listed apart in the source
[34] = not given; remark: listed apart in the source
[35] = not given; remark: listed apart in the source
[36] = method code SF-HPLC, from DOI: 10.3109/03639045.2012.690417, PMID: 22670797
[37] = not given; remark: listed apart in the source
[38] = not given; remark: listed apart in the source
[39] = not given; remark: listed apart in the source
[40] = method code SF-AS, from Korenman, Y. (1973). Extraction of p-halophenols. Zh. Prikl. Khim., 46(11)2754-2755.; details: pH 7.4
[41] = from Gehmann, K., Nyfeler, R., Leadbeater, A. J., Nevill, D. J., & Sozzi, D. (1990). CGA 173506: A new phenylpyrrole fungicide for broad-spectrum disease control. In Brighton Crop Protection Conference, …
[42] = method code SF-AS, from DOI: 10.1016/0014-5793(79)80862-5, PMID: 478007
[43] = method code G-GLC, from DOI: 10.1021/es00171a006
[44] = method code SF-HPLC, from DOI: 10.1002/ps.2780440103; details: pH 2.0
[45] = method code SF-AS, from DOI: 10.2307/3575639, PMID: 7313077; details: pH 7.4
[46] = method code SF-HPLC, from DOI: 10.1016/j.ejmech.2008.06.022, PMID: 18687506; details: pH 7.4
[47] = method code SF-GLC, from Hashimoto, S.; Schneider, S.; Yamamoto, T.; Morita, M. (1994). Aqueous solubility and octanol-water partition coefficient of 3,3',4,4'-tetrachloroazobenzene. 20, 125-128.
[48] = method code SF-F, from DOI: 10.1021/js950367f, PMID: 8901074
[49] = method code SF-AS, from DOI: 10.1016/0891-5849(92)90146-8, PMID: 1334029; details: pH 2.0
[50] = method code SF-RC, from DOI: 10.1016/j.bmc.2005.04.014, PMID: 15911305; details: pH 7.4

Cc1c(O)c(=O)ccn1CCCn1ccnc1
logD [1]: -0.46

Cc1nc2n(c1C)CNc1ccccc1-2
logP [2]: 2.07

O=C(O)CCCn1c(=O)oc2ccccc2c1=O
logP: 0.2

Cc1c(O)c(=O)ccn1CCc1c[nH]cn1
logD [3]: -0.05

Cc1[nH]cnc1CSCCNc1cc[nH]c(=O)n1
logP [4]: -0.4

Clc1cc(-c2ccccc2)c(Cl)c(Cl)c1Cl
logP [5]: 5.9

Nc1nc(N)c2nc(-c3ccc(O)cc3)c(N)nc2n1
logD [6]: 0.92

CCC(Oc1ccc(Cl)cc1C)C(=O)O (stereo unspecified)
logP [7]: 3.47

CCc1cccc2ccccc12
logP [8]: 4.38

CCCCCOc1ccc(O)cc1
logP [9]: 3.26

CN(C)C(=O)CNCc1ccccc1
logP [10]: 1.11

CC(=O)Nc1ccn(C2CSC(COC(C)=O)O2)c(=O)n1 (stereo unspecified)
logD [11]: 0.88

Cc1nc2c(N)ncnc2n1[C@@H]1O[C@H](CO)C[C@@H]1F
logD [12]: 0.1

CCOP(=O)(OCC)Oc1ccc(S(C)(=O)=O)cc1
logP [13]: 0

Cn1c(=O)[nH]c2ncn(CC(C)(C)C)c2c1=O
logD [14]: 0.6

Cc1cccc2cccc(C)c12
logP [15]: 4.26

COC(=O)/C=C/c1ccc(O)c(OC)c1
logP [16]: 1.2

CCN1CCCc2cc(F)ccc21
logD [17]: 2.82

CCCC(C)C1(CC)C(=O)NC(=O)NC1=O (stereo unspecified)
logD [18]: 1.75

CCNc1nc(NC(C)C(C)C)nc(SC)n1 (stereo unspecified)
logP [19]: 3.76

O=C(O)Cc1cccc2ccccc12
logP [20]: 2.24

Clc1cc(Cl)c(-c2cc(Cl)c(Cl)cc2Cl)cc1Cl
logP [21]: 6.67

COc1ccc(Cc2cnc(N)nc2N)cc1Cl
logP [22]: 1.65

CCC1(c2ccccc2)C(=O)NC(=O)NC1=O
logD [23]: 1.32

Cc1cc(C)nc(NS(=O)(=O)c2ccc(N)cc2)n1
logP [24]: 0.21

CNC(=O)OCc1nc(SC)n(C)c1COC(=O)NC
logP [25]: 0.74

O=C(O)COc1cccc2ccccc12
logD [26]: 2.6

Cc1noc(NS(=O)(=O)c2ccc(N)cc2)c1C
logP [27]: 0.83

CCCSc1nsnc1C1=CCCN(C)C1
logD [28]: 2.9

Clc1cc2c(oc3c(Cl)c(Cl)c(Cl)cc32)c(Cl)c1Cl
logP [29]: 6.6

CC1=C(C)C(O)N(c2ccccc2)C1=O (stereo unspecified)
logP [30]: 1.63

COC(=O)c1sccc1S(=O)(=O)NC(=O)Nc1nc(OC)nc(OC)n1
logD [31]: 0.52

CC(=O)NC1CC(C)(C)N(O)C(C)(C)C1
logD [32]: 0.52

Nc1nc(N)c2nc(-c3ccccc3)c(N)nc2n1
logP [33]: 1.24

CCCCc1ccc(C(=O)O)cc1
logP [34]: 3.7

O=[N+]([O-])c1nccn1CC(O)COc1ccccc1 (stereo unspecified)
logP [35]: 1.4

CC(C)(C)c1ccc(NC(N)=S)cc1
logP [36]: 2.6

CC1(C)NC(=O)N(c2ccc([N+](=O)[O-])c(C(F)(F)F)c2)C1=O
logP [37]: 2.31

CC[C@@H]1C(=O)OC[C@@H]1Cc1cncn1C
logP [38]: 0.66

c1nnnn1C12CC3CC(CC(C3)C1)C2
logP [39]: 2.95

C=CCC1(CC(=C)Br)C(=O)NC(=O)N(C)C1=O (stereo unspecified)
logD [40]: 1.78

N#Cc1c[nH]cc1-c1cccc2c1OC(F)(F)O2
logP [41]: 2.6

C#CC(C)N(C)C(=O)Nc1ccc(Cl)cc1 (stereo unspecified)
logP [42]: 3

Clc1c(Cl)c(Cl)c2c(oc3c(Cl)c(Cl)c(Cl)c(Cl)c32)c1Cl
logP [43]: 7.59

O=C(O)[C@H]1O[C@@H](Oc2ccc([N+](=O)[O-])cc2)[C@H](O)[C@@H](O)[C@@H]1O
logD [44]: -0.75

CN(C)C(=O)c1cc(N2CC2)c([N+](=O)[O-])cc1[N+](=O)[O-]
logD [45]: 0.63

CC(=O)NCC(=O)NN=Nc1ccc(C#N)cc1
logD [46]: 1.1

Clc1ccc(/N=N/c2ccc(Cl)c(Cl)c2)cc1Cl
logP [47]: 5.53

COc1c2ccoc2cc2oc(=O)ccc12
logP [48]: 2

CC(=O)C(=Cc1cc(O)c(O)c([N+](=O)[O-])c1)C(C)=O
logD [49]: 1.21

Nc1nc(OCc2cccc(I)c2)c2nc[nH]c2n1
logD [50]: 2.2
